This note sets out measurements from patent publication US20250230165A1, “HETEROCYCLIC COMPOUNDS FOR USE IN THE TREATMENT OF CANCER” (ARTIOS PHARMA LIMITED, priority 2021, published 2025).

The target in this assay is T1, Human Polθ polymerase domain (aa1820-2590) (Homo sapiens, UniProt O75417).
T1 construct: Human Polθ polymerase domain (aa1820-2590) was expressed in E. coli; made in house; host or cells: E. coli
T1 sequence (O75417 1820-2590): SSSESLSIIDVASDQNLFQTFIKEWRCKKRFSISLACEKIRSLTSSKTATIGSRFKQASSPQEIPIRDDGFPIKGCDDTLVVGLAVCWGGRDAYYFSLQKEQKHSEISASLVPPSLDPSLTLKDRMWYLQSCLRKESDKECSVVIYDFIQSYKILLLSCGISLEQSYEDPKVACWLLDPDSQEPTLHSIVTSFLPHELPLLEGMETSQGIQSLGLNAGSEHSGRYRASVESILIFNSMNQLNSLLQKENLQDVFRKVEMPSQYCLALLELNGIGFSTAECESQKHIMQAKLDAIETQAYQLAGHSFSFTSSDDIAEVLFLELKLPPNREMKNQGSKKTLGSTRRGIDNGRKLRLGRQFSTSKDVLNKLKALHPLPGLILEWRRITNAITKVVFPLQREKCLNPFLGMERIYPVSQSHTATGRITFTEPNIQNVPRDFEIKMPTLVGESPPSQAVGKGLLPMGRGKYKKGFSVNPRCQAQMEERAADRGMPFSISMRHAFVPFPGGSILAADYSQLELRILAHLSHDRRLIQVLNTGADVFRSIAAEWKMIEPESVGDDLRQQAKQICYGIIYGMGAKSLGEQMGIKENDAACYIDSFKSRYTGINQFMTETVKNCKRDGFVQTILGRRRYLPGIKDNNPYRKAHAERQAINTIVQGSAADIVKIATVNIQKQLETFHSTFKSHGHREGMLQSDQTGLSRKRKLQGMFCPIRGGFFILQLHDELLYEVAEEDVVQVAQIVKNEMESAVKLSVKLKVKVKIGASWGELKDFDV
The experiment in a line: Polθ Polymerase Domain Kinact/KI Assay (PicoGreen). In kind it is biochemical. To be noted: 0.8 nM Polθ, 100 nM DNA substrate, kobs vs [I] fit for 2-step covalent inhibitor. Put shortly:
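PicoGreen fluorescence read-out of primer extension; progress curves per inhibitor concentration fitted for kobs, then kobs vs [I] fitted to a two-step covalent model to give Kinact and KI. Conditions: 0.8 nM enzyme, 100 nM DNA substrate, […].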
For the molecule `Cc1cc(C(F)(F)F)cc(N2C(=O)C[C@@H]3CN(Cc4ccc([C@H]5CCCN5C(=O)/C=C/CN(C)C)cc4)c4c(F)cccc4N(C)C(=O)[C@H]32)n1` (racemic) [Example 170a, (3aR,11aS)-5-(4-((R/S)-1-((E)-4-(dimethylamino)-but-2-enoyl)pyr-rolidin-2-yl)benz-yl)-6-fluoro-10-methyl-1-(6-methyl-4-(tri-fluoromethyl)-pyridin-2-yl)-1,3a,4,5,10,11a-hexahydro-2H-benzo[b]pyrrolo [2,3-f][1,4]diazo-cine-2,11(3H)-dione], the Kinact/Kl was determined as 880000 M⁻¹ s⁻¹.

In turn, `Cc1cc(C(F)(F)F)cc(N2C(=O)C[C@@H]3CN(Cc4ccc([C@@H]5CCCN5C(=O)/C=C/CN(C)C)cc4)c4c(F)cccc4N(C)C(=O)[C@H]32)n1` (racemic) [Example 170b, (3aR,11aS)-5-(4-((S/R)-1-((E)-4-(dimethylamino)-but-2-enoyl)pyr-rolidin-2-yl)benz-yl)-6-fluoro-10-methyl-1-(6-methyl-4-(tri-fluoromethyl)-pyridin-2-yl)-1,3a,4,5,10,11a-hexahydro-2H-benzo[b]pyrrolo [2,3-f][1,4]diazo-cine-2,11(3H)-dione] returned a Kinact/Kl of 410000 M⁻¹ s⁻¹. The figure for `C=C(CN(C)C)C(=O)N1CCC[C@@H]1c1ccc(CN2C[C@H]3CC(=O)N(c4cc(C(F)(F)F)cc(C)n4)[C@@H]3C(=O)N(C)c3cccc(F)c32)cc1` (racemic) [Example 171a, (3aR,11aS)-5-(4-((R/S)-1-(2-((di-methylamino)-methyl)acryloyl)-pyrrolidin-2-yl)-benzyl)-6-fluoro-10-methyl-1-(6-methyl-4-(tri-fluoromethyl)-pyridin-2-yl)-1,3a,4,5,10,11a-hexahydro-2H-benzo[b]pyrrolo [2,3-f][1,4]diazo-cine-2,11(3H)-dione] is 2.29e+06 M⁻¹ s⁻¹; for `C=C(CN(C)C)C(=O)N1CCC[C@H]1c1ccc(CN2C[C@H]3CC(=O)N(c4cc(C(F)(F)F)cc(C)n4)[C@@H]3C(=O)N(C)c3cccc(F)c32)cc1` (racemic) [Example 171b, (3aR,11aS)-5-(4-((S/R)-1-(2-((di-methylamino)-methyl)acryloyl)-pyrrolidin-2-yl)-benzyl)-6-fluoro-10-methyl-1-(6-methyl-4-(tri-fluoromethyl)-pyridin-2-yl)-1,3a,4,5,10,11a-hexahydro-2H-benzo[b]pyrrolo [2,3-f][1,4]diazo-cine-2,11(3H)-dione] it is 1.62e+06 M⁻¹ s⁻¹. The molecule `C#CC(=O)N1Cc2nc(CN3C[C@H]4CC(=O)N(c5cc(C(F)(F)F)cc(C)n5)[C@@H]4C(=O)N(C)c4cccc(Cl)c43)cn2C[C@@H]1C` (racemic) [Example 172a, (3aR,11aS)-6-chloro-10-meth-yl-1-(6-methyl-4-(trifluorometh-yl)pyridin-2-yl)-5-(((S/R)-6-meth-yl-7-propioloyl-5,6,7,8-tetra-hydroimidazo [1,2-a]pyrazin-2-yl)methyl)-1,3a, 4,5,10,11a-hexa-hydro-2H-benzo [b]pyrrolo[2,3-f] [1,4]diazocine-2,11(3H)-dione] showed a Kinact/Kl of 900000 M⁻¹ s⁻¹. In turn, `C#CC(=O)N1Cc2nc(CN3C[C@H]4CC(=O)N(c5cc(C(F)(F)F)cc(C)n5)[C@@H]4C(=O)N(C)c4cccc(Cl)c43)cn2C[C@H]1C` (racemic) [Example 172b, (3aR,11aS)-6-chloro-10-meth-yl-1-(6-methyl-4-(trifluoro-methyl)pyridin-2-yl)-5-(((R/S)-6-methyl-7-propioloyl-5,6,7,8-tetra-hydroimidazo [1,2-a]pyrazin-2-yl)methyl)-1,3a,4,5,10,11a-hexahydro-2H-benzo[b]pyrrolo [2,3-f][1,4]diazo-cine-2,11(3H)-dione] displayed a Kinact/Kl of 280000 M⁻¹ s⁻¹. Next, `C#CC(=O)N1Cc2nc(CN3C[C@H]4CC(=O)N(c5cc(C(F)(F)F)cc(C)n5)[C@@H]4C(=O)N(C)c4cccc(C)c43)cn2C[C@H]1C` (racemic) [Example 199, (3aR,11aS)-6,10-dimethyl-1-(6-methyl-4-(tri-fluoromethyl)pyr-idin-2-yl)-5-(((R/S)-6-methyl-7-propioloyl-5,6,7,8-tetrahydro-imidazo[1,2-a]pyr-azin-2-yl)methyl)-1,3a,4,5,10,11a-hexahydro-2H-benzo[b]pyrrolo [2,3-f][1,4]diazo-cine-2,11(3H)-dione]: 1.38e+06 M⁻¹ s⁻¹; `C=CC(=O)N1Cc2nc(CN3C[C@H]4CC(=O)N(c5cc(C(F)(F)F)cc(C)n5)[C@@H]4C(=O)N(C)c4cccc(C)c43)cn2C[C@@H]1C` (racemic) [Example 206b, (3aR,11aS)-5-(((S/R)-7-acryloyl-6-methyl-5,6,7,8-tetrahydroimidazo [1,2-a]pyrazin-2-yl)methyl)-6,10-dimethyl-1-(6-methyl-4-(trifluoromethyl)pyridin-2-yl)-1,3a,4,5,10,11a-hexahydro-2H-benzo[b]pyrrolo [2,3-f][1,4]diazocine-2,11(3H)-dione]: 4.19e+06 M⁻¹ s⁻¹; `C=CC(=O)N1CC(N2CCC[C@H](CN3C[C@H]4CC(=O)N(c5cc(C(F)(F)F)cc(C)n5)[C@@H]4C(=O)N(C)c4cccc(F)c43)C2)C1` (racemic) [Example 225b, (3aR,11aS)-5-(((S/R)-1-(1-acryloylazetidin-3-yl)piperidin-3-yl)methyl)-6-fluoro-10-methyl-1-(6-methyl-4-(trifluoromethyl)pyridin-2-yl)-1,3a,4,5,10,11a-hexahydro-2H-benzo[b] pyrrolo[2,3-f] [1,4]diazocine-2,11(3H)-dione]: 1.31e+06 M⁻¹ s⁻¹.

For `C=CC(=O)N1Cc2cc(CN3C[C@H]4CC(=O)N(c5cc(C(F)(F)F)cc(C)n5)[C@@H]4C(=O)N(C)c4cccc(Cl)c43)cnc2[C@H]1CO` (racemic) [Example 231, (3aR,11aS)-5-(((S/R)-6-acryloyl-7-(hydroxymethyl)-6,7-dihydro-5H-pyrrolo[3,4-b]pyridin-3-yl)methyl)-6-chloro-10-methyl-1-(6-methyl-4-(trifluoromethyl)pyridin-2-yl)-1,3a,4,5,10,11a-hexahydro-2H-benzo[b]pyrrolo[2,3-f][1,4]diazocine-2,11(3H)-dione], the Kinact/Kl was 860000 M⁻¹ s⁻¹.

`C=CC(=O)N1Cc2cc(CN3C[C@H]4CC(=O)N(c5cc(C(F)(F)F)cc(C)n5)[C@@H]4C(=O)N(C)c4cccc(C)c43)cnc2[C@H]1CO` (racemic) [Example 233, (3aR,11aS)-5-(((S/R)-6-acryloyl-7-(hydroxymethyl)-6,7-dihydro-5H-pyrrolo[3,4-b]pyridin-3-yl)methyl)-6,10-dimethyl-1-(6-methyl-4-(trifluoromethyl)pyridin-2-yl)-1,3a,4,5,10,11a-hexahydro-2H-benzo[b]pyrrolo[2,3-f][1,4]diazocine-2,11(3H)-dione] gave a Kinact/Kl of 2.99e+06 M⁻¹ s⁻¹. Next, `C=CC(=O)N1Cc2cc(CN3C[C@H]4CC(=O)N(c5cc(C(F)(F)F)cc(C)n5)[C@@H]4C(=O)N(C)c4cccc(C)c43)cnc2[C@H]1COC` (racemic) [Example 234, (3aR,11aS)-5-(((S/R)-6-acryloyl-7-(methoxymethyl)-6,7-dihydro-5H-pyrrolo[3,4-b]pyridin-3-yl)methyl)-6,10-dimethyl-1-(6-methyl-4-(trifluoromethyl)pyridin-2-yl)-1,3a,4,5,10,11a-hexahydro-2H-benzo[b]pyrrolo[2,3-f][1,4]diazocine-2,11(3H)-dione]: 5.85e+06 M⁻¹ s⁻¹.
